In brackets after ≈: the same amount, converted by molar mass.
Assays:
[1] = tested on: Mycobacterium tuberculosis variant bovis BCG; experiment: Antitubercular activity against active state Mycobacterium bovis BCG ATCC 35734 assessed as viable cells after 8 days by nitrate reductase assay; format: functional, organism-based; settings: ATCC 35734, 192 h
[2] = tested on: Mycobacterium tuberculosis variant bovis BCG; experiment: Antitubercular activity against dormant state Mycobacterium bovis BCG ATCC 35734 assessed as viable cells after 12 days by nitrate reductase assay; format: functional, organism-based; settings: ATCC 35734, 288 h

Structure (SMILES) | IC50 [1] [µg/mL] | MIC [1] [µg/mL] | IC50 [2] [µg/mL] | MIC [2] [µg/mL]
O=C(/C=C\c1cccc(F)c1)N1N=C(c2ccncc2)OC1c1c[nH]c2ccccc12 (stereo not drawn) | 19.5 (≈ 47.4 µM) | > 30 | 20.4 (≈ 49.5 µM) | > 30
COc1ccc(/C=C\C(=O)N2N=C(c3ccncc3)OC2c2c[nH]c3ccccc23)cc1 (stereo not drawn) | > 30 | > 30 | > 30 | > 30
O=C(/C=C\c1ccccc1O)N1N=C(c2ccncc2)OC1c1c[nH]c2ccccc12 (stereo not drawn) | 0.46 (≈ 1.12 µM) | 0.94 (≈ 2.29 µM) | 0.68 (≈ 1.66 µM) | 1.19 (≈ 2.9 µM)
O=C(/C=C\c1ccccc1[N+](=O)[O-])N1N=C(c2ccncc2)OC1c1c[nH]c2ccccc12 (stereo not drawn) | 0.48 (≈ 1.09 µM) | 1.03 (≈ 2.34 µM) | 0.36 (≈ 0.819 µM) | 0.85 (≈ 1.93 µM)
O=C(/C=C\c1ccccc1Cl)N1N=C(c2ccncc2)OC1c1c[nH]c2ccccc12 (stereo not drawn) | > 30 | > 30 | > 30 | > 30
O=C(/C=C\c1cccc([N+](=O)[O-])c1)N1N=C(c2ccncc2)OC1c1c[nH]c2ccccc12 (stereo not drawn) | > 30 | > 30 | > 30 | > 30
O=C(/C=C\c1ccccc1F)N1N=C(c2ccncc2)OC1c1c[nH]c2ccccc12 (stereo not drawn) | > 30 | > 30 | > 30 | > 30
O=C(/C=C\c1ccc([N+](=O)[O-])cc1)N1N=C(c2ccncc2)OC1c1c[nH]c2ccccc12 (stereo not drawn) | 1.42 (≈ 3.23 µM) | 2.5 (≈ 5.69 µM) | 1.37 (≈ 3.12 µM) | 2.37 (≈ 5.39 µM)
O=C(/C=C\c1ccc(Cl)cc1Cl)N1N=C(c2ccncc2)OC1c1c[nH]c2ccccc12 (stereo not drawn) | 2.93 (≈ 6.32 µM) | 5.17 (≈ 11.2 µM) | 1.5 (≈ 3.24 µM) | 4.97 (≈ 10.7 µM)
O=C(/C=C\c1cccc(O)c1)N1N=C(c2ccncc2)OC1c1c[nH]c2ccccc12 (stereo not drawn) | > 30 | > 30 | > 30 | > 30
O=C(/C=C\c1cccc(Br)c1)N1N=C(c2ccncc2)OC1c1c[nH]c2ccccc12 (stereo not drawn) | > 30 | > 30 | 21.7 (≈ 45.9 µM) | > 30
O=C(/C=C\c1ccc(F)cc1)N1N=C(c2ccncc2)OC1c1c[nH]c2ccccc12 (stereo not drawn) | > 30 | > 30 | > 30 | > 30
Cc1ccc(/C=C\C(=O)N2N=C(c3ccncc3)OC2c2c[nH]c3ccccc23)cc1 (stereo not drawn) | > 30 | > 30 | > 30 | > 30
O=C(/C=C\c1cccc(Cl)c1)N1N=C(c2ccncc2)OC1c1c[nH]c2ccccc12 (stereo not drawn) | > 30 | > 30 | > 30 | > 30
O=C(/C=C/c1c(Cl)cccc1Cl)N1N=C(c2ccncc2)OC1c1c[nH]c2ccccc12 (stereo not drawn) | > 30 | > 30 | 19.2 (≈ 41.5 µM) | > 30
NNC(=O)c1ccncc1 [ISONIAZID] | 0.0012 (≈ 0.00875 µM) | 0.033 (≈ 0.241 µM) | 0.0017 (≈ 0.0124 µM) | 0.037 (≈ 0.27 µM)
O=C(/C=C\c1ccc(Br)cc1)N1N=C(c2ccncc2)OC1c1c[nH]c2ccccc12 (stereo not drawn) | > 30 | > 30 | > 30 | > 30
CO[C@H]1/C=C/O[C@@]2(C)Oc3c(C)c(O)c4c(O)c(c(/C=N/N5CCN(C)CC5)c(O)c4c3C2=O)NC(=O)/C(C)=C\C=C\[C@H](C)[C@H](O)[C@@H](C)[C@@H](O)[C@@H](C)[C@H](OC(C)=O)[C@@H]1C [RIFAMPIN] | 0.0012 (≈ 0.00146 µM) | 0.015 (≈ 0.0182 µM) | 0.0015 (≈ 0.00182 µM) | 0.017 (≈ 0.0207 µM)
O=C(/C=C\c1ccc(Cl)cc1)N1N=C(c2ccncc2)OC1c1c[nH]c2ccccc12 (stereo not drawn) | > 30 | > 30 | > 30 | > 30
O=C(/C=C\c1cccc(Cl)c1Cl)N1N=C(c2ccncc2)OC1c1c[nH]c2ccccc12 (stereo not drawn) | > 30 | > 30 | > 30 | > 30
O=C(/C=C\c1ccc(O)cc1)N1N=C(c2ccncc2)OC1c1c[nH]c2ccccc12 (stereo not drawn) | 28.8 (≈ 70.2 µM) | > 30 | 27.9 (≈ 68 µM) | > 30
O=C(/C=C\c1ccccc1)N1N=C(c2ccncc2)OC1c1c[nH]c2ccccc12 (stereo not drawn) | 12.3 (≈ 31.3 µM) | > 30 | 11.2 (≈ 28.5 µM) | > 30

From ChEMBL document CHEMBL3779770, “Synthesis, biological evaluation and molecular docking study of some novel indole and pyridine based 1,3,4-oxadiazole derivatives as potential antitubercular agents” (Bioorg Med Chem Lett, 2016)
